In US10493125B2 (Merck Sharp & Dohme Corp., priority 2015, dated 2019):
Where two headings read alike, the source gives them in different places. Starred links: 1 amine or outer side, 2 acyl side, 3 side chain; linkers in the order of their positions; H or OH if unused. Non-standard residues stand in square brackets, D forms with d. Residues, ends and D or L forms follow the SMILES beside them. Groups on a side chain read outwards from the residue. No end group written: not given here. *: point of attachment. γGlu = O=C(O)[C@H](CCC(=O)[*:2])N[*:1]; Palmitoyl = CCCCCCCCCCCCCCCC(=O)*

What was measured:
human GLP1R = target: T1, human GLP1R (Homo sapiens, UniProt P43220); test: cAMP activity assay (HitHunter cAMP XS), cells expressing human GLP1R; assay type: cell-based
T1 construct: expressed in transfected cells
Procedure: (§1) Peptides were dissolved in 100% DMSO and serially diluted to generate 10 point titrations. The peptide solutions were then transferred into 384-well assay plates (150 nL/well). Assay ready frozen cells expressing human GLP1R or human GCGR were suspended in growth media consisting of DMEM medium (GIBCO), 10% FBS (GIBCO), 1×NEAA(GIBCO), 1× P/S (GIBCO), 10 ug/ml Blasticidin (GIBCO) and 200 μg/mL Hygromycin (GIBCO). […] The cell suspensions (15 μL) were then added to the assay plates containing the peptide solutions (30,000 cells/well for human GCGR; 10,000 cells/well for human GLP1R). The cells were incubated for 1 hour at room temperature in the dark. Production of cAMP was determined using HitHunter™ cAMPXS kits (DiscoverX) following manufacturer protocol. The plates were incubated for overnight at room temperature in the dark. Luminescence was measured using an EnVision Multilabel plate reader (Perkin Elmer). […] EC50 values were calculated using uses a 4 parameter logistic fit based on the Levenberg-Marquardt algorithm.

human GCGR = target: T2, human GCGR (Homo sapiens, UniProt P47871); test: cAMP activity assay (HitHunter cAMP XS), cells expressing human GCGR; assay type: cell-based; conditions: for EC50: read-out: EC50 hGCGR; for Ratio: EC50 hGCGR divided by EC50 hGLP1
T2 construct: expressed in transfected cells
Procedure: as §1

[1] = Table 2, cAMP production, read-out: EC50 hGLP1R
[2] = Table 7, lipidated analogs vs parental peptides, read-out: EC50 hGLP1
[3] = Table 7, lipidated analogs vs parental peptides

T2 sequence (P47871 26-477): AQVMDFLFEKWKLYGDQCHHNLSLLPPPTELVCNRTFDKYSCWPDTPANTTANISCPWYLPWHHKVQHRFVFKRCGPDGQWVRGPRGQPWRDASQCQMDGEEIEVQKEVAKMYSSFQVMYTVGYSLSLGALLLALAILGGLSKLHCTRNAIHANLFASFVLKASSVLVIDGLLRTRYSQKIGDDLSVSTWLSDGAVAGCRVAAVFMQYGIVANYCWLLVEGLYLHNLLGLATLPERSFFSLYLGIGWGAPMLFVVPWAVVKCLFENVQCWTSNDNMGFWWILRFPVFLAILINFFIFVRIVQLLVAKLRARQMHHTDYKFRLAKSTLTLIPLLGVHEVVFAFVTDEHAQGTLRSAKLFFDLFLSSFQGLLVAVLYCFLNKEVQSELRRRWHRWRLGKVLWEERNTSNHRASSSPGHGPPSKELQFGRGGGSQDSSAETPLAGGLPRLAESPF
T1 sequence (P43220 24-463): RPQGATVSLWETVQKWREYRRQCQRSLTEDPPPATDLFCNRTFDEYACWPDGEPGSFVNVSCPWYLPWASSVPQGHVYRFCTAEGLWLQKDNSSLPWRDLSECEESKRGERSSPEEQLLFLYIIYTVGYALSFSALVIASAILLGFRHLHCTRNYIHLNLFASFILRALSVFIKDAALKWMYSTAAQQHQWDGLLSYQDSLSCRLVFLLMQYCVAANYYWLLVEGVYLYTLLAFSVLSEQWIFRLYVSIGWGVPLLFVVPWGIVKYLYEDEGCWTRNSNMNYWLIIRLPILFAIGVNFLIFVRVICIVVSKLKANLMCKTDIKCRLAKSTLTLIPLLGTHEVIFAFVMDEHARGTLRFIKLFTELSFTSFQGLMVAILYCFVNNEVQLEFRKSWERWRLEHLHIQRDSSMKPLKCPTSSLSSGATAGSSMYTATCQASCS

EC50 (human GLP1R; [1]) [nM]	EC50 (human GCGR; Table 2, cAMP production) [nM]	EC50 (human GLP1R; [2]) [nM]	Ratio (human GCGR; Table 7)	EC50 (human GCGR; [3]) [nM]	Molecule
0.05	0.03				CC(C)C[C@H](NC(=O)[C@H](Cc1ccc(O)cc1)NC(=O)[C@H](CCCCN)NC(=O)[C@H](CO)NC(=O)[C@H](Cc1ccc(O)cc1)NC(=O)[C@H](CC(=O)O)NC(=O)[C@H](CO)NC(=O)[C@@H](NC(=O)[C@H](Cc1ccccc1)NC(=O)[C@@H](NC(=O)CNC(=O)[C@H](CCC(N)=O)NC(=O)[C@H](CO)NC(=O)[C@@H](N)Cc1c[nH]cn1)[C@@H](C)O)[C@@H](C)O)C(=O)N[C@@H](CC(=O)O)C(=O)N[C@@H](Cc1c[nH]c2ccccc12)C(=O)N[C@@H](CCCNC(=N)N)C(=O)N[C@@H](CCCNC(=N)N)C(=O)N[C@@H](C)C(=O)N[C@@H](CCC(N)=O)C(=O)N[C@@H](CC(=O)O)C(=O)N[C@@H](Cc1ccccc1)C(=O)N[C@H](C(=O)N[C@@H](CCC(N)=O)C(=O)N[C@@H](Cc1c[nH]c2ccccc12)C(=O)N[C@@H](CC(C)C)C(=O)N[C@@H](CC(C)C)C(=O)N[C@@H](CC(N)=O)C(=O)N[C@H](C(N)=O)[C@@H](C)O)C(C)C [PD23]
0.01	0.02				CC(C)C[C@H](NC(=O)[C@H](CC(C)C)NC(=O)[C@H](Cc1c[nH]c2ccccc12)NC(=O)[C@H](CCC(N)=O)NC(=O)[C@@H](NC(=O)[C@H](Cc1ccccc1)NC(=O)[C@H](CC(=O)O)NC(=O)[C@H](CCC(N)=O)NC(=O)[C@H](C)NC(=O)[C@H](CCCNC(=N)N)NC(=O)[C@H](CCCNC(=N)N)NC(=O)[C@H](CO)NC(=O)[C@H](CC(=O)O)NC(=O)[C@H](CC(C)C)NC(=O)[C@H](Cc1ccc(O)cc1)NC(=O)[C@H](CCCCN)NC(=O)[C@H](CO)NC(=O)[C@H](Cc1ccc(O)cc1)NC(=O)[C@H](CC(=O)O)NC(=O)[C@H](CO)NC(=O)[C@@H](NC(=O)[C@H](Cc1ccccc1)NC(=O)[C@@H](NC(=O)CNC(=O)[C@H](CCC(N)=O)NC(=O)[C@H](CO)NC(=O)[C@@H](N)Cc1c[nH]cn1)[C@@H](C)O)[C@@H](C)O)C(C)C)C(=O)N[C@@H](CC(=O)O)C(=O)N[C@@H](CO)C(N)=O [PD59]
0.03	0.02				H-HSQGTFTSDYSKYLDSLMAQDFVQWLMST-NH2 [PD22]
0.04	0.03				CSCC[C@H](NC(=O)[C@H](CC(C)C)NC(=O)[C@H](Cc1c[nH]c2ccccc12)NC(=O)[C@H](CCC(N)=O)NC(=O)[C@@H](NC(=O)[C@H](Cc1ccccc1)NC(=O)[C@H](CC(=O)O)NC(=O)[C@H](CCC(N)=O)NC(=O)[C@H](C)NC(=O)[C@H](CCCNC(=N)N)NC(=O)[C@H](CCCNC(=N)N)NC(=O)[C@H](CO)NC(=O)[C@H](CC(=O)O)NC(=O)[C@H](CC(C)C)NC(=O)[C@H](Cc1c[nH]c2ccccc12)NC(=O)[C@H](Cc1c[nH]cn1)NC(=O)[C@H](CO)NC(=O)[C@H](Cc1ccc(O)cc1)NC(=O)[C@H](CC(=O)O)NC(=O)[C@H](CO)NC(=O)[C@H](Cc1ccccc1)NC(=O)[C@H](Cc1ccccc1)NC(=O)[C@@H](NC(=O)CNC(=O)[C@H](CCC(N)=O)NC(=O)[C@H](CO)NC(=O)[C@@H](N)Cc1c[nH]cn1)[C@@H](C)O)C(C)C)C(=O)N[C@@H](CC(N)=O)C(=O)N[C@H](C(N)=O)[C@@H](C)O [PD43]
		≥ 5	0.004	0.02	CC(C)C[C@H](NC(=O)[C@H](CC(C)C)NC(=O)[C@H](CCCCN)NC(=O)[C@H](CO)NC(=O)[C@H](Cc1ccc(O)cc1)NC(=O)[C@H](CC(=O)O)NC(=O)[C@H](CO)NC(=O)[C@H](CC(C)C)NC(=O)[C@H](Cc1ccccc1)NC(=O)[C@@H](NC(=O)CNC(=O)[C@H](CCC(N)=O)NC(=O)[C@@H](CO)NC(=O)[C@@H](N)Cc1c[nH]cn1)[C@@H](C)O)C(=O)N[C@@H](CC(=O)O)C(=O)N[C@@H](CO)C(=O)N[C@@H](CCCNC(=N)N)C(=O)N[C@@H](C)C(=O)N[C@@H](C)C(=O)N[C@@H](CCC(N)=O)C(=O)N[C@@H](CC(=O)O)C(=O)N[C@@H](Cc1ccccc1)C(=O)N[C@H](C(=O)N[C@@H](CCC(N)=O)C(=O)N[C@@H](Cc1c[nH]c2ccccc12)C(=O)N[C@@H](CC(C)C)C(=O)N[C@@H](CC(C)C)C(=O)N[C@@H](CCC(N)=O)C(=O)N[C@H](C(N)=O)[C@@H](C)O)C(C)C [TP552] (H-H[dS]QGTFLSDYSKLLDSRAAQDFVQWLLQT-NH2; N-terminus assumed)
0.02	0.03				HSQGTFTSDYSKYLDSKRAHDFVQWLLNT-NH2 [PD45]
0.01	0.02				CC[C@H](C)[C@H](NC(=O)[C@H](CC(C)C)NC(=O)[C@H](Cc1c[nH]c2ccccc12)NC(=O)[C@H](CC(=O)O)NC(=O)[C@@H](NC(=O)[C@H](Cc1ccccc1)NC(=O)[C@H](CC(=O)O)NC(=O)[C@H](CCC(N)=O)NC(=O)[C@H](C)NC(=O)[C@H](CCCNC(=N)N)NC(=O)[C@H](CCCNC(=N)N)NC(=O)[C@H](CO)NC(=O)[C@H](CC(=O)O)NC(=O)[C@H](CC(C)C)NC(=O)[C@H](Cc1ccc(O)cc1)NC(=O)[C@H](CCCCN)NC(=O)[C@H](CO)NC(=O)[C@H](Cc1ccc(O)cc1)NC(=O)[C@H](CC(=O)O)NC(=O)[C@H](CO)NC(=O)[C@@H](NC(=O)[C@H](Cc1ccccc1)NC(=O)[C@@H](NC(=O)CNC(=O)[C@H](CCC(N)=O)NC(=O)[C@H](CO)NC(=O)[C@@H](N)Cc1c[nH]cn1)[C@@H](C)O)[C@@H](C)O)C(C)C)C(=O)N[C@@H](CC(N)=O)C(=O)N[C@@H](CO)C(N)=O [PD50]
0.02	0.02		1		H-HSQGTFTSDYSKYLDSRRAHDFVQWLLNT-NH2 [PD29]
		0.02	0.5	0.01	CCCCCCCCCCCCCCCC(=O)N[C@@H](CCC(=O)N[C@@H](CCC(=O)NCCCC[C@H](NC(=O)[C@H](CC(=O)O)NC(=O)[C@H](CO)NC(=O)[C@@H](NC(=O)[C@H](Cc1ccccc1)NC(=O)[C@@H](NC(=O)CNC(=O)[C@H](CCC(N)=O)NC(=O)[C@@H](CO)NC(=O)[C@@H](N)Cc1c[nH]cn1)[C@@H](C)O)[C@@H](C)O)C(=O)N[C@@H](CO)C(=O)N[C@@H](CCCCN)C(=O)N[C@@H](Cc1ccc(O)cc1)C(=O)N[C@@H](CC(C)C)C(=O)N[C@@H](CC(=O)O)C(=O)N[C@@H](CC(N)=O)C(=O)N[C@@H](CCCCN)C(=O)N[C@@H](CCCNC(=N)N)C(=O)N[C@@H](C)C(=O)N[C@@H](CCC(N)=O)C(=O)N[C@@H](CC(=O)O)C(=O)N[C@@H](Cc1ccccc1)C(=O)N[C@H](C(=O)N[C@@H](CCC(N)=O)C(=O)N[C@@H](Cc1c[nH]c2ccccc12)C(=O)N[C@@H](CC(C)C)C(=O)N[C@@H](CCSC)C(=O)N[C@@H](CCC(N)=O)C(=O)N[C@H](C(N)=O)[C@@H](C)O)C(C)C)C(=O)O)C(=O)O [TP534] (H-H[dS]QGTFTSDK([γGlu-γGlu-Palmitoyl])SKYLDNKRAQDFVQWLMQT-NH2; N-terminus assumed)
0.01	0.01				CSCC[C@H](NC(=O)[C@H](CC(=O)O)NC(=O)[C@H](CC(C)C)NC(=O)[C@H](Cc1ccc(O)cc1)NC(=O)[C@H](CCCCN)NC(=O)[C@H](CO)NC(=O)[C@H](Cc1ccc(O)cc1)NC(=O)[C@H](CC(=O)O)NC(=O)[C@H](CO)NC(=O)[C@@H](NC(=O)[C@H](Cc1ccccc1)NC(=O)[C@@H](NC(=O)CNC(=O)[C@H](CCC(N)=O)NC(=O)[C@H](CO)NC(=O)[C@@H](N)Cc1c[nH]cn1)[C@@H](C)O)[C@@H](C)O)C(=O)N[C@@H](CCC(N)=O)C(=O)N[C@@H](CCCNC(=N)N)C(=O)N[C@@H](C)C(=O)N[C@@H](Cc1c[nH]cn1)C(=O)N[C@@H](CC(=O)O)C(=O)N[C@@H](Cc1ccccc1)C(=O)N[C@H](C(=O)N[C@@H](CCC(N)=O)C(=O)N[C@@H](Cc1c[nH]c2ccccc12)C(=O)N[C@@H](CC(C)C)C(=O)N[C@@H](CCSC)C(=O)N[C@@H](CC(N)=O)C(=O)N[C@H](C(N)=O)[C@@H](C)O)C(C)C [PD55]
